Laboratory results taken from patent US11053204B2, “Pyrimidinyloxy benzene derivatives as herbicides” (FMC Corporation, priority 2015, dated 2021).

Legend:
Format in all cases: in vivo
[1] = tested on: Italian ryegrass (Lolium multiflorum); assay: Test A preemergence, visual injury rating
In short: (§1)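 Injury scores run from 0, no effect, to 100, complete control, judged by eye against untreated plants roughly 10 days after treatment. Chemicals carried a surfactant in a non-phytotoxic solvent and went onto loam–sand soil preemergence or onto one- to two-leaf seedlings postemergence.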

[2] = tested on: barnyardgrass (Echinochloa crus-galli); assay: Test A preemergence, visual injury rating
In short: as §1

[3] = tested on: giant foxtail (Setaria faberii); assay: Test A preemergence, visual injury rating
In short: as §1

kochia (Kochia scoparia) = assay: Test A preemergence, visual injury rating
In short: as §1

[4] = tested on: pigweed (Amaranthus retroflexus); assay: Test A preemergence, visual injury rating
In short: as §1

[5] = tested on: ragweed (common ragweed, Ambrosia elatior); assay: Test A preemergence, visual injury rating
In short: as §1

[6] = tested on: blackgrass (Alopecurus myosuroides); assay: Test C postemergence, plant response rating; conditions: for Plant response rating, Blackgrass: scale 0 to 100; for Blackgrass plant response rating: scale 0 to 100 (0 no effect, 100 complete control)
In short: (§2)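 Visual injury score, 0 = no effect, 100 = complete control, assigned against untreated controls after 13 to 15 d in the greenhouse. Compounds were applied in a surfactant-containing non-phytotoxic solvent mix, preemergence to seeded loam/sand or silt loam soil, or postemergence to 1- to 4-leaf plants (2 to 18 cm).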

[7] = tested on: chickweed (common chickweed, Stellaria media); assay: Test C postemergence, plant response rating; conditions: for Chickweed plant response rating: scale 0 to 100 (0 no effect, 100 complete control)
In short: as §2

corn (Zea mays) = assay: Test C postemergence, plant response rating; conditions: for Corn plant response rating: scale 0 to 100 (0 no effect, 100 complete control)
In short: as §2

[8] = tested on: crabgrass, large (large crabgrass, Digitaria sanguinalis); assay: Test C postemergence, plant response rating; conditions: for Crabgrass, Large plant response rating: scale 0 to 100 (0 no effect, 100 complete control)
In short: as §2

[9] = tested on: foxtail, giant (giant foxtail, Setaria faberii); assay: Test C postemergence, plant response rating; conditions: for Foxtail, Giant plant response rating: scale 0 to 100 (0 no effect, 100 complete control)
In short: as §2

[10] = tested on: galium (catchweed bedstraw, Galium aparine); assay: Test C postemergence, plant response rating; conditions: for Galium plant response rating: scale 0 to 100 (0 no effect, 100 complete control)
In short: as §2

[11] = tested on: lambsquarters (Chenopodium album); assay: Test C postemergence, plant response rating; conditions: for Lambsquarters plant response rating: scale 0 to 100 (0 no effect, 100 complete control)
In short: as §2

[12] = tested on: nutsedge, yellow (yellow nutsedge, Cyperus esculentus); assay: Test C postemergence, plant response rating; conditions: for Nutsedge, Yellow plant response rating: scale 0 to 100 (0 no effect, 100 complete control)
In short: as §2

[13] = tested on: oat, wild (wild oat Avena fatua); assay: Test C postemergence, plant response rating; conditions: for Oat, Wild plant response rating: scale 0 to 100 (0 no effect, 100 complete control)
In short: as §2

[14] = tested on: ryegrass, Italian (Italian ryegrass, Lolium multiflorum); assay: Test C postemergence, plant response rating; conditions: for Ryegrass, Italian plant response rating: scale 0 to 100 (0 no effect, 100 complete control)
In short: as §2

soybean (Glycine max) = assay: Test C postemergence, plant response rating; conditions: for Soybean plant response rating: scale 0 to 100 (0 no effect, 100 complete control)
In short: as §2

[15] = tested on: wheat (winter wheat, Triticum aestivum); assay: Test C postemergence, plant response rating; conditions: for Wheat plant response rating: scale 0 to 100 (0 no effect, 100 complete control)
In short: as §2

[16] = 31 g ai/ha, 0 to 100 scale, 0 no effect, 100 complete control
[17] = 125 g ai/ha, 0 to 100 scale (0 no effect, 100 complete control)

In the case of O=C(CCCC(F)(F)F)c1c(Br)cccc1Oc1ncc(Cl)cn1 [Compound 77], the “Plant response rating, Ryegrass, Italian” value [1, 16] is reported as 0, the “Ryegrass, Italian plant response rating” value [1, 17] is reported as 70 and the “Plant response rating, Barnyardgrass” value [2, 16] is reported as 20. The “Barnyardgrass plant response rating” value [2, 17] was 100, the “Plant response rating, Foxtail, Giant” value [3, 16] was 100 and the “Foxtail, Giant plant response rating” value [3, 17] was 100. For the same compound, the “Plant response rating, Kochia” value (kochia (Kochia scoparia); [16]) was 80, the “Kochia plant response rating” value (kochia (Kochia scoparia); [17]) was 100 and the “Plant response rating, Pigweed” value [4, 16] was 100. The “Pigweed plant response rating” value [4, 17] was 100, the “Plant response rating, Ragweed” value [5, 16] was 0 and the “Ragweed plant response rating” value [5, 17] was 0. For the same compound, the “Plant response rating, Blackgrass” value ([6]; 16 g ai/ha) was 5, the “Plant response rating, Blackgrass” value ([6]; 31 g ai/ha) was 20 and the “Blackgrass plant response rating” value ([6]; 62 g ai/ha) was 20. The “Blackgrass plant response rating” value ([6]; 125 g ai/ha) was 25, the “Plant response rating, Chickweed” value ([7]; 16 g ai/ha, scale of 0 to 100) was 80 and the “Plant response rating, Chickweed” value ([7]; 31 g ai/ha, scale 0 to 100) was 80. The “Chickweed plant response rating” value ([7]; 62 g ai/ha) was 100, the “Chickweed plant response rating” value ([7]; 125 g ai/ha) was 100 and the “Plant response rating, Corn” value (corn (Zea mays); 16 g ai/ha, scale of 0 to 100) was 15. The “Plant response rating, Corn” value (corn (Zea mays); 31 g ai/ha, scale 0 to 100) was 15, the “Corn plant response rating” value (corn (Zea mays); 62 g ai/ha) was 20 and the “Corn plant response rating” value (corn (Zea mays); 125 g ai/ha) was 25. For the same compound, the “Plant response rating, Crabgrass, Large” value ([8]; 16 g ai/ha, scale of 0 to 100) was 10, the “Plant response rating, Crabgrass, Large” value ([8]; 31 g ai/ha, scale 0 to 100) was 25 and the “Crabgrass, Large plant response rating” value ([8]; 62 g ai/ha) was 30. For the same compound, the “Crabgrass, Large plant response rating” value ([8]; 125 g ai/ha) was 30, the “Plant response rating, Foxtail, Giant” value ([9]; 16 g ai/ha, scale of 0 to 100) was 10 and the “Plant response rating, Foxtail, Giant” value ([9]; 31 g ai/ha, scale 0 to 100) was 20. The “Foxtail, Giant plant response rating” value ([9]; 62 g ai/ha) was 25, the “Foxtail, Giant plant response rating” value ([9]; 125 g ai/ha) was 70 and the “Plant response rating, Galium” value ([10]; 16 g ai/ha, scale of 0 to 100) was 75. For the same compound, the “Plant response rating, Galium” value ([10]; 31 g ai/ha, scale 0 to 100) was 98, the “Galium plant response rating” value ([10]; 62 g ai/ha) was 95 and the “Galium plant response rating” value ([10]; 125 g ai/ha) was 98. The “Plant response rating, Lambsquarters” value ([11]; 16 g ai/ha, scale of 0 to 100) was 55, the “Plant response rating, Lambsquarters” value ([11]; 31 g ai/ha, scale 0 to 100) was 75 and the “Lambsquarters plant response rating” value ([11]; 62 g ai/ha) was 70. The “Lambsquarters plant response rating” value ([11]; 125 g ai/ha) was 90, the “Plant response rating, Nutsedge, Yellow” value ([12]; 16 g ai/ha, scale of 0 to 100) was 5 and the “Plant response rating, Nutsedge, Yellow” value ([12]; 31 g ai/ha, scale 0 to 100) was 10. For the same compound, the “Nutsedge, Yellow plant response rating” value ([12]; 62 g ai/ha) was 15, the “Nutsedge, Yellow plant response rating” value ([12]; 125 g ai/ha) was 15 and the “Plant response rating, Oat, Wild” value ([13]; 16 g ai/ha, scale of 0 to 100) was 0. For the same compound, the “Plant response rating, Oat, Wild” value ([13]; 31 g ai/ha, scale 0 to 100) was 5, the “Oat, Wild plant response rating” value ([13]; 62 g ai/ha) was 10 and the “Oat, Wild plant response rating” value ([13]; 125 g ai/ha) was 15. For the same compound, the “Plant response rating, Ryegrass, Italian” value ([14]; 16 g ai/ha, scale of 0 to 100) was 0, the “Plant response rating, Ryegrass, Italian” value ([14]; 31 g ai/ha, scale 0 to 100) was 5 and the “Ryegrass, Italian plant response rating” value ([14]; 62 g ai/ha) was 10. For the same compound, the “Ryegrass, Italian plant response rating” value ([14]; 125 g ai/ha) was 10, the “Plant response rating, Soybean” value (soybean (Glycine max); 16 g ai/ha, scale of 0 to 100) was 25 and the “Plant response rating, Soybean” value (soybean (Glycine max); 31 g ai/ha, scale 0 to 100) was 50. The “Soybean plant response rating” value (soybean (Glycine max); 62 g ai/ha) was 70, the “Soybean plant response rating” value (soybean (Glycine max); 125 g ai/ha) was 65 and the “Plant response rating, Wheat” value ([15]; 16 g ai/ha, scale of 0 to 100) was 0. For the same compound, the “Plant response rating, Wheat” value ([15]; 31 g ai/ha, scale 0 to 100) was 0, the “Wheat plant response rating” value ([15]; 62 g ai/ha) was 10 and the “Wheat plant response rating” value ([15]; 125 g ai/ha) was 30.
